Source: ChEMBL document CHEMBL1122427, “Structure-activity studies of highly potent cyclic [Cys4,Cys10]Melanotropin analogues” (J Med Chem, 1983)

Experiments:
frog = assay: Evaluated for relative potency in stimulating melanosome dispersion against Frog skin melanophores (Rana pipiens); type: functional
lizard = assay: Evaluated for relative potency in stimulating melanosome dispersion against Lizard skin (Anolis carolinensis).; type: functional

| Compound | Relative potency (frog) | Relative potency (lizard) |
| --- | --- | --- |
| CC(=O)N[C@@H](CO)C(=O)N[C@@H](Cc1ccc(O)cc1)C(=O)N[C@@H](CO)C(=O)N[C@@H]1CSSC[C@H](C(=O)N[C@H](CCCCN)C(=O)N2CCC[C@@H]2C(=O)N[C@@H](C(N)=O)C(C)C)NC(=O)[C@@H](Cc2c[nH]c3ccccc23)NC(=O)[C@H](CCCN=C(N)N)NC(=O)[C@@H](Cc2ccccc2)NC(=O)[C@H](Cc2c[nH]cn2)NC(=O)[C@@H](CCC(=O)O)NC1=O | 10000 | 32 |
| CC(=O)N[C@@H]1CSSC[C@H](C(=O)N[C@H](CCCCN)C(=O)N2CCC[C@@H]2C(=O)N[C@@H](C(N)=O)C(C)C)NC(=O)[C@@H](Cc2c[nH]c3ccccc23)NC(=O)[C@H](CCCN=C(N)N)NC(=O)[C@@H](Cc2ccccc2)NC(=O)[C@H](Cc2c[nH]cn2)NC(=O)[C@@H](CCC(=O)O)NC1=O | 10000 | 1.6 |
| CSCC[C@H](NC(C)=O)C(=O)N[C@@H](CCC(=O)O)C(=O)N[C@@H](Cc1c[nH]cn1)C(=O)N[C@@H](Cc1ccccc1)C(=O)N[C@@H](CCCN=C(N)N)C(=O)N[C@@H](Cc1c[nH]c2ccccc12)C(=O)NCC(N)=O | 0.0006 | 0.02 |
| CC(=O)N[C@@H]1CSSC[C@H](C(N)=O)NC(=O)[C@@H](Cc2c[nH]c3ccccc23)NC(=O)[C@H](CCCN=C(N)N)NC(=O)[C@@H](Cc2ccccc2)NC(=O)[C@H](Cc2c[nH]cn2)NC(=O)[C@@H](CCC(=O)O)NC1=O | 0.07 | 0.003 |
